Measured values from patent US6812221B2, “FGF-affinity chromatography” (The Texas A&M University System, priority 2000, dated 2004).
Entries after “also recorded” stand apart in the source; their conditions may differ.

Tests used:
[1] = tested on: mouse keratinocytes (MK); test: Mitogenic activity in cultured mouse keratinocytes (MK); assay type: cell-based; conditions: cells in culture
Protocol: (§1) Finally, the recovery and activity of purified ^54Ser-FGF7 was tested after the removal of the GST portion by trypsin treatment from the heparin-immobilized GST-FGF7 recovered under the improved conditions employing 10 mM MgCl2 and the BL21 (DE3) pLysS strain. […] Results indicated a yield of pure ^54Ser-FGF7 of 4.8±0.5 mg per liter per OD600, which on a molar basis represents an average yield of 70 percent from the purified GST-FGF7 product.

[2] = Heparin affinity chromatography / heparin binding
Protocol: FIG. 1. Intact heparin-binding in the GST-FGF7 fusion product. Pure 200 μg GST-FGF7 and 10 ng ^125I-FGF7 (3×10^6 cpm) was mixed and subjected to heparin affinity chromatography on Pharmacia FPLC system. The GST-FGF7 was detected as a major peak (solid trace) by absorbance at 280 nm.
When fused at the N-terminal of FGF7 with a highly soluble and productive partner, Glutathione-S-transferase (GST), FGF7 was produced in bacteria at about 3.2 mg/ml yield with retained biological activity. Expressing alone has barely detectable level by immuno-reaction. Pure fusion protein was obtained by sequential chromatography on Glutathione (GSH) and Heparin affinity matrix (Luo et al. 1998, Lu et al. 1999, Jang et al. 1997). This is consistent with FGF7 crystal structure, which shown that the N-terminal of FGF7 is flexible and outside the compact core structure, and heparin-binding domain is apart from the flexible N-terminal. FGF7 itself was released by simply trypsin digestion that mimics an in vivo cleavage event (Luo et al. 1998, Lu et al. 1999, Jang et al. 1997).

[3] = biological target: T1, FGFR2111b (Homo sapiens, UniProt P21802); test: Binding to FGFR complex on the surface of insect cells
T1 construct: expressed in transfected cells; host or cells: insect cells
T1 sequence (P21802 22-822 isoform P21802-3 limits assumed): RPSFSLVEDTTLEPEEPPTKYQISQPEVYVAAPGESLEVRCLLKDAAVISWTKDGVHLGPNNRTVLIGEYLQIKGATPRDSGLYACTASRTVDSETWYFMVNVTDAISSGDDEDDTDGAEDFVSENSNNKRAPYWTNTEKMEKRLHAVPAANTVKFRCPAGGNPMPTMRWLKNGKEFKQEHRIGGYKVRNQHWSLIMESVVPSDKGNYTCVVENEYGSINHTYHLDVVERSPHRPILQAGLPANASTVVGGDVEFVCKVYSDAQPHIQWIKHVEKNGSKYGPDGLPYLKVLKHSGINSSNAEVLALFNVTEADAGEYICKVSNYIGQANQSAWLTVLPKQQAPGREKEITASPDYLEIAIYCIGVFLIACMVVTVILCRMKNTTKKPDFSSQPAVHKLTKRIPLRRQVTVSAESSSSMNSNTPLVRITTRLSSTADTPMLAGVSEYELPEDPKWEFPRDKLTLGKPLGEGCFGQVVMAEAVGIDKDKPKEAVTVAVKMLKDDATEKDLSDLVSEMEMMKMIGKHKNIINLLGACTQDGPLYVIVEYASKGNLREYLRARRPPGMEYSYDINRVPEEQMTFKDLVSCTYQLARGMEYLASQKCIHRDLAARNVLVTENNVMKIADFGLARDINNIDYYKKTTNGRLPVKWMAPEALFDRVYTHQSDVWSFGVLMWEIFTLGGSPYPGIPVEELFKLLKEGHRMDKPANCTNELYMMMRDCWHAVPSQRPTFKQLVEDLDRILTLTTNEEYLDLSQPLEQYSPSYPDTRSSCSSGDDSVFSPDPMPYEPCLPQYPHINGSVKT
Protocol: as §1

[4] = tested on: factor Xa; test: Neutralization assay, anti-Factor Xa activity of heparin; assay type: biochemical; conditions: 0.9M NaCl eluted 6000 Da heparin fractions
Protocol: (§2) FIG. 4. Neutralization of anticoagulant activity of 0.9M NaCl eluted 6000 Da heparin (Sigma) fractions from GST-FGF7 column (closed squares) or Antithrombin column (closed triangles) by FGF7. a. 0.3, 1, 3, 10, 30 ug/ml FGF7 was used to neutralize anti-Factor Xa activity of 0.9M elute. b. 0.3, 1, 3, 10, 30 μg/ml FGF7 was used to neutralize anti-Factor IIa activity. The activity was expressed as percentage of Factor Xa or IIa activity in the presence of Antithrombin and FGF7, but absence of any heparin, subtracted by the remaining activity without FGF7 addition. […] Data represent average of at least three separate experiments.
(§3) Neutralization assay. 10 μl 1 μg/ml 0.9 M high affinity FGF7 or Antithrombin bound 6000 Da heparin (final concentration 100 ng/ml) (Sigma, St. Louis) and 10 μl various concentration of FGF7 were incubated with 10 μl 10 μg/ml Antithrombin solution. The rest of the assay was essentially followed the anti-Factor Xa or anti-Factor IIa assay described above. The activity was expressed as percentage of Factor Xa or IIa activity in the presence of Antithrombin and FGF7, but absence of any heparin, subtracted by the remaining activity without FGF7 addition.

[5] = tested on: Factor IIa; test: Neutralization assay, anti-Factor IIa activity of heparin; assay type: biochemical; conditions: 0.9M NaCl eluted 6000 Da heparin fractions
Protocol: as §2, §3

[6] = cited from earlier work
[7] = tested on: factor Xa; conditions: determined against a low molecular weight heparin (Toida et al. 1996); cited from earlier work
[8] = biological target: T2, FGF7 (Rattus norvegicus, UniProt Q02195); test: Protease (pronase) protection assay with 125I-FGF7; assay type: biochemical; conditions: 150 ng pronase, overnight 37° C., SDS-PAGE/autoradiography
T2 construct: GST (N, cleaved yes); made in house; host or cells: bacteria (E. coli)
T2 sequence (Q02195 55-194): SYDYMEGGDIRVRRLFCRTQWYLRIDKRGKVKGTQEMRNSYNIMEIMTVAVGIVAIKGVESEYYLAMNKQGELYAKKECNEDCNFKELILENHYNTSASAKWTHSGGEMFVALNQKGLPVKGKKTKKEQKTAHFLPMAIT
Protocol: Interaction of Heparin and Oligosaccharides with FGF. The antithrombin-binding decasaccharide (10-mer) was prepared, purified to homogeneity (28) and has the structure ΔUAp2S(1→4)-α-D-GlcNpS6S(1→4)-α-L-IdoAp(1→4)-α-D-GlcNpAc6S(1→4)-β-D-GlcAp(1→4)-α-D-GlcNpS3S6S(1→4)-α-L-IdoAp2S(1→4)-α-D-GlcNpS6S(1→4)-α-L-IdoAp2S(1→4)-α-D-GlcNpS6S. The tetradecasaccharide (14-mer) was prepared in >90% purity and characterized by multidimensional NMR spectroscopy (Toida et al. 1996). While the saccharide composition and the presence of an antithrombin-binding site pentasaccharide sequence could be confirmed, the precise placement of this sequence within the tetradecasaccharide could not be elucidated. The sequence was ΔUAp2S(1→4)-α-D-GlcNpS6S (1→4)-α-L-IdoAp2S(1→]n4)-α-D-GlcNpS6S(1→4)-α-LIdoAp(1→4)-α-D-GlcNpAc6S(1→4)-β-D-GlcAp(1→4)-α-D-GlcNpS3S6S(1→4)-α-L-IdoAp2S(1→[4)-α-D-GlcNpS6S(1→4)-α-L-IdoAp2S(1 43 ]m4)-α-D-GlcNS6S where n+m=3. The anti-factor Xa amydolytic activity of the hexasaccharide (6-mer), decasaccharide (10-mer) and tetradecasaccharide (14-mer) were 0, 3200 and 5800 units/mg, respectively, as determined against a low molecular weight heparin (Toida et al. 1996). Heparin was fractionated by antithrombin affinity chromatography (Kan et al. 1999). […] After incubation overnight at 37° C., SDS-PAGE and autoradiography were employed to quantify the remaining FGF. […]

GST-FGF1: human FGF1 fused to Glutathione-S-Transferase (GST)
mitogenic activity [1]: Neither GST-FGF1 nor GST-FGF7 bind and activate the FGFR kinase complex and exhibit mitogenic activity
heparin binding [2]: retain affinity for heparin similar to the unfused products
binding to / activation of the FGFR complex [3]: Neither GST-FGF1 nor GST-FGF7 bind and activate the FGFR kinase complex

GST-FGF7: fusion protein Glutathione-S-Transferase-Fibroblast Growth Factor 7, SEQ ID NO.4
mitogenic activity [1]: Neither GST-FGF1 nor GST-FGF7 bind and activate the FGFR kinase complex and exhibit mitogenic activity; also recorded: inactive
neutralization of anti-Factor Xa activity compared with FGF7 [4]: same neutralization effects as FGF7
neutralization of anti-Factor IIa activity compared with FGF7 [5]: same neutralization effects as FGF7
heparin binding [2]: retain affinity for heparin similar to the unfused products; also recorded: fully active
sodium chloride concentration of elution from heparin affinity column ([2]; heparin affinity chromatography, FPLC (FIG. 1)): about 0.9 M
binding to / activation of the FGFR complex [3]: Neither GST-FGF1 nor GST-FGF7 bind and activate the FGFR kinase complex; also recorded: inactive

PF4: Heparin-binding platelet factor 4, proposed scavenger for neutralizing the anticoagulant effect
adverse effect of administration to patients ([6]; humans (U.S. Pat. No. 5,801,063)): serious granulocytopenia

heparin
patients developing clinically significant osteoporosis ([6]; human, in vivo): half
patients with thrombocytopenia persisting for the duration of therapy ([6]; human, in vivo): approximately 5%

protamine
incidence of mild reactions ([6]; use of protamine in patients): ≤ 16%

ΔUAp2S(1→4)-α-D-GlcNpS6S (1→4)-α-L-IdoAp2S(1→]n4)-α-D-GlcNpS6S(1→4)-α-LIdoAp(1→4)-α-D-GlcNpAc6S(1→4)-β-D-GlcAp(1→4)-α-D-GlcNpS3S6S(1→4)-α-L-IdoAp2S(1→[4)-α-D-GlcNpS6S(1→4)-α-L-IdoAp2S(1 43 ]m4)-α-D-GlcNS6S where n+m=3 [tetradecasaccharide (14-mer)]
anti-factor Xa amydolytic activity [7]: 5800 units/mg
protection of FGF7 against protease [8]: able to protect

ΔUAp2S(1→4)-α-D-GlcNpS6S(1→4)-α-L-IdoAp(1→4)-α-D-GlcNpAc6S(1→4)-β-D-GlcAp(1→4)-α-D-GlcNpS3S6S(1→4)-α-L-IdoAp2S(1→4)-α-D-GlcNpS6S(1→4)-α-L-IdoAp2S(1→4)-α-D-GlcNpS6S [decasaccharide (10-mer)]
anti-factor Xa amydolytic activity [7]: 3200 units/mg
protection of FGF7 against protease [8]: able to protect
